Laboratory results reported in patent US4276285A, “Combinations of penicillanic acid 1,1-dioxide with 7-(D-2-[4-ethylpiperazin-2,3-dione-1-carboxamido]-2-[4-hydroxyphenyl]ace tamido)-3-([1-methyl-5-tetrazolyl]thiomethyl)-3-desacetoxymethylcephalosp oranic acid” (priority 1979, dated 1981).

What was measured:
[1] = test system: microbial beta-lactamases; test: Inhibition of microbial beta-lactamases; assay type: biochemical; details: result in words
[2] = test system: resistant Escherichia coli; test: MIC alone and in combination against 30 strains of resistant Escherichia coli; assay type: cell-based
Experimental: The manner in which the compounds of the formula I increase the effectiveness of the compound of formula XXII and the pharmaceutically-acceptable salts thereof can be appreciated by reference to experiments in which the MIC of the compound of the formula XXII alone, and the compound of the formula I wherein R^1 is hydrogen alone, are measured. These MIC's are then compared with the MIC values obtained with a combination of the compound of formula XXII and the compound of the formula I, wherein R^1 is hydrogen. […] The MIC values of combinations are measured using the method described by Barry and Sabath in "Manual of Clinical Microbiology", edited by Lenette, Spaulding and Truant, 2nd edition, 1974, American Society of Microbiology.
The minimum inhibitory concentrations (MIC's) of penicillanic acid 1,1-dioxide (PA 1,1-dioxide) alone and 7-(D-2-[4-ethylpiperazine-2,3-dione-1-carboxamido]-2-[4-hydroxyphenyl]acetamido)-3-([1-methyl-5-tetrazolyl]thiomethyl)-3-desacetoxymethylcephalosporanic acid (T-1551) alone, against 30 strains of resistant Escherichia coli, were measured. These MIC's were then compared with the MIC values obtained with a combination of the two compounds. The results were as follows:
The MIC's were measured using the method recommended by the International Collaborative Study on Antibiotic Sensitivity Testing (Ericcson and Sherris, Acta. Pathologica et Microbiologica Scandivav, Supp. 217, Section B, 64-68 [1971]), which employed brain heart infusion agar and the inocular replicating device. Overnight growth tubes were diluted 10-fold for use as the standard inoculum. Twelve two-fold dilutions of the test compound were employed with initial concentration of the test drug being 200 mcg/ml. Single colonies were disregarded when reading plates after 18 hours at 37° C. […] The MIC's of combinations were measured using the method described by Barry and Sabath in "Manual of Clinical Microbiology", edited by Lenette, Spaulding and Truant, 2nd edition, 1974, American Society for Microbiology.

CC1(C)[C@H](C(=O)O)N2C(=O)C[C@H]2S1(=O)=O [Penicillanic Acid 1,1-Dioxide]
inhibition of microbial beta-lactamases [1]: potent inhibitors of microbial beta-lactamases | Mode MIC's of T-1551 & PA 1,1-Dioxide in Combination: PA 1,1-Dioxide ([2]; in combination with T-1551 (1.56)): 1.56

CCN1CCN(C(=O)N[C@@H](C(=O)N[C@@H]2C(=O)N3C(C(=O)O)=C(CSc4nnnn4C)CS[C@H]23)c2ccc(O)cc2)C(=O)C1=O [Example T-1551, 7-(D-2-[4-ethylpiperazine-2,3-dione-1-carboxamido]-2-[4-hydroxyphenyl]acetamido)-3-([1-methyl-5-tetrazolyl]thiomethyl)-3-desacetoxymethylcephalosporanic acid]
MIC ([2]; alone, BHI agar, 18 hours at 37° C., read-out: Mode MIC of T-1551 alone): 100 µg/mL | Mode MIC's of T-1551 & PA 1,1-Dioxide in Combination: T-1551 ([2]; in combination with PA 1,1-Dioxide (1.56)): 1.56
